Source: the NIST ThermoML archive (doi:10.1021/je900609f)
± gives the expanded uncertainty stated by the source.

Conditions: Crystal; visual observation

## C=CC(=O)Nc1cc(F)c(Br)c(F)c1 [N-(4-bromo-3,5-difluorophenyl)acrylamide]
  Normal melting temperature: 182 ± 0.7 °C
